Active and inactive are the calls of the source. No cut-off for these calls is given here.
How the values were obtained:
Mus musculus [1] = assay: Anticonvulsant activity in ip dosed 6 Hz psychomotor seizure model of NMRI mouse assessed as protection against seizure after 30 minutes; format: functional; settings: 0.5 h
Mus musculus [2] = assay: Neurotoxicity in ip dosed albino CF1 mouse assessed as time of peak effect for median neurological impairing; format: toxicity, organism-based; settings: in vivo
Mus musculus [3] = assay: Protective index, ratio of TD50 for ip dosed NMRI mouse to ED50 for ip dosed NMRI mouse by maximal electroshock test; format: functional
Mus musculus [4] = assay: Anticonvulsant activity in ip dosed NMRI mouse assessed as protection against maximal electroshock seizure after 30 mins; format: functional; settings: 0.5 h
Mus musculus [5] = assay: Anticonvulsant activity in ip dosed albino CF1 mouse assessed as protection against 6 Hz psychomotor seizure after 30 mins; format: functional; settings: 0.5 h
Rattus norvegicus [6] = assay: Anticonvulsant activity in po dosed albino Sprague-Dawley rat assessed as protection against maximal electroshock seizure; format: functional
[7] = Toxicity in po dosed albino Sprague-Dawley rat assessed as behavioural toxicity; format: organism-based; settings: in vivo
Mus musculus [8] = assay: Anticonvulsant activity in ip dosed albino CF1 mouse assessed as protection against subcutaneous pentylenetetrazol-induced seizure; format: functional, organism-based
[9] = Neurotoxicity in ip dosed NMRI mouse assessed as median neurological impairing dose after 30 mins by rotarod test; format: toxicity, organism-based; settings: in vivo
Mus musculus [10] = assay: Anticonvulsant activity in ip dosed albino CF1 mouse assessed as protection against maximal electroshock-induced seizure after 30 mins; format: functional; settings: 0.5 h
Mus musculus [11] = assay: Anticonvulsant activity in ip dosed albino CF1 mouse assessed as time of peak effect for protection against maximal electroshock-induced seizure; format: functional
Mus musculus [12] = assay: Analgesic activity in NMRI mouse assessed as reduction in formalin-induced neuropathic pain at 12 mg/kg, ip; format: functional, organism-based; parameters: dose 12 mg/kg
Rattus norvegicus [13] = assay: Protective index, ratio of TD50 for po dosed albino Sprague-Dawley rat to ED50 for po dosed albino Sprague-Dawley rat by maximal electroshock test; format: functional
Rattus norvegicus [14] = assay: Anticonvulsant activity in po dosed albino Sprague-Dawley rat assessed as time of peak effect for protection against maximal electroshock seizure; format: functional
[15] = Neurotoxicity in ip dosed albino CF1 mouse assessed as median neurological impairing dose after 30 mins; format: toxicity, organism-based; settings: in vivo
Mus musculus [16] = assay: Analgesic activity in NMRI mouse assessed as reduction in formalin-induced neuropathic pain at 37 mg/kg, ip; format: functional; parameters: scale not given: the % may be the effect or the level left; settings: route intraperitoneal
Mus musculus [17] = assay: Analgesic activity in NMRI mouse assessed as reduction in formalin-induced neuropathic pain at 110 mg/kg, ip; format: functional; parameters: scale not given: the % may be the effect or the level left; settings: route intraperitoneal
Mus musculus [18] = assay: Anticonvulsant activity in ip dosed 6 Hz psychomotor seizure model of NMRI mouse assessed as minimal active dose after 30 mins; format: functional
Mus musculus [19] = assay: Analgesic activity in ip dosed NMRI mouse assessed as reduction in formalin-induced neuropathic pain after 30 mins; format: functional; settings: 0.5 h
Mus musculus [20] = assay: Analgesic activity in ip dosed albino CF1 mouse assessed as time of peak effect for reduction of formalin-induced neuropathic pain; format: functional
Mus musculus [21] = assay: Protective index, ratio of TD50 for ip dosed albino CF1 mouse to ED50 for ip dosed albino CF1 mouse by maximal electroshock test; format: functional
Mus musculus [22] = assay: Anticonvulsant activity in ip dosed albino CF1 mouse assessed as time of peak effect for protection against 6 Hz psychomotor seizure; format: functional
Mus musculus [23] = assay: Analgesic activity in ip dosed albino CF1 mouse assessed as reduction of formalin-induced neuropathic pain after 30 mins; format: functional; settings: 0.5 h
Mus musculus [24] = assay: Anticonvulsant activity in ip dosed maximal electroshock seizure model of NMRI mouse assessed as minimal active dose after 30 mins; format: functional
Mus musculus [25] = assay: Protective index, ratio of TD50 for ip dosed NMRI mouse to ED50 for ip dosed formalin-induced neuropathic pain model of NMRI mouse; format: functional

For `COC[C@@H](N)C(=O)NCc1ccc(COc2cccc(F)c2)cc1`, the ED50 (Mus musculus [1]) was 58 mg/kg, the Time (Mus musculus [2]) was 0.5 h and the “Ratio TD50/ED50” value (Mus musculus [3]) was 5.4. The ED50 (Mus musculus [4]) was 8.9 mg/kg, the ED50 (Mus musculus [5]) was less than 30 mg/kg and the ED50 (Rattus norvegicus [6]) was 12 mg/kg. For the same compound, the TD50 [7] was greater than 500 mg/kg, the Activity (Mus musculus [8]) was “inactive” and the TD50 at 0.5 h [9] was 46 mg/kg. The ED50 (Mus musculus [10]) was 10 mg/kg, the Time (Mus musculus [11]) was 0.5 h and the Activity (Mus musculus [12]) was “inactive”. The “Ratio TD50/ED50” value (Rattus norvegicus [13]) was greater than 42, the Time (Rattus norvegicus [14]) was 0.5 h and the TD50 at 0.5 h [15] was 30 mg/kg. The Activity (Mus musculus [16]) was 94%.
`CC(C)[C@@H](N)C(=O)NCc1ccc(OCc2cccc(F)c2)cc1` gave an ED50 (Mus musculus [1]) greater than 110 mg/kg, an Activity (Mus musculus [17]) of 80% and an ED50 (Mus musculus [4]) of 12 mg/kg. For the same compound, the Activity (Mus musculus [8]) was “inactive”.
In the case of `COC[C@@H](N)C(=O)NCc1ccc(-c2ccccc2)cc1.Cl`, the MAC (Mus musculus [18]) is reported as 59 mg/kg, the ED50 (Mus musculus [4]) is reported as 15 mg/kg and the ED50 (Mus musculus [19]) is reported as greater than 33 mg/kg. The Activity (Mus musculus [8]) was “inactive”.
For `CC(C)[C@@H](N)C(=O)NCc1ccc(OC(F)(F)F)cc1`, the Time (Mus musculus [20]) was 0.25 h, the “Ratio TD50/ED50” value (Mus musculus [21]) was 5.3 and the Time (Mus musculus [2]) was 0.25 h. The ED50 (Mus musculus [5]) was 28 mg/kg, the ED50 (Rattus norvegicus [6]) was 18 mg/kg and the TD50 [7] was greater than 500 mg/kg. For the same compound, the Activity (Mus musculus [8]) was “inactive”, the ED50 (Mus musculus [10]) was 16 mg/kg and the Time (Mus musculus [11]) was 0.25 h. For the same compound, the Time (Mus musculus [22]) was 0.5 h, the ED50 (Mus musculus [23]) was 16 mg/kg and the “Ratio TD50/ED50” value (Rattus norvegicus [13]) was greater than 27. The Time (Rattus norvegicus [14]) was 1 h and the TD50 at 0.5 h [15] was 84 mg/kg.
`CC(C)[C@@H](N)C(=O)NCc1ccccc1` gave a Time (Mus musculus [20]) of 0.25 h, an ED50 (Mus musculus [1]) of 74 mg/kg and an MAC (Mus musculus [24]) of 16 mg/kg. For the same compound, the “Ratio TD50/ED50” value (Mus musculus [21]) was 4.8, the Time (Mus musculus [2]) was 0.25 h and the “Ratio TD50/ED50” value (Mus musculus [3]) was 2.9. For the same compound, the ED50 (Mus musculus [5]) was less than 100 mg/kg, the ED50 (Mus musculus [19]) was 20 mg/kg and the ED50 (Rattus norvegicus [6]) was 11 mg/kg. For the same compound, the TD50 [7] was greater than 500 mg/kg, the TD50 at 0.5 h [9] was 47 mg/kg and the ED50 (Mus musculus [10]) was 15 mg/kg. For the same compound, the Time (Mus musculus [11]) was 0.25 h, the Time (Mus musculus [22]) was 0.25 h and the ED50 (Mus musculus [23]) was 15 mg/kg. The “Ratio TD50/ED50” value (Rattus norvegicus [13]) was greater than 45, the Time (Rattus norvegicus [14]) was 0.25 h and the TD50 at 0.5 h [15] was 70 mg/kg.
With `COC[C@@H](N)C(=O)NCc1ccc(Br)cc1.Cl` the ED50 (Mus musculus [1]) was greater than 180 mg/kg, the “Ratio TD50/ED50” value (Mus musculus [3]) was 3.7 and the ED50 (Mus musculus [4]) was 31 mg/kg. For the same compound, the “Ratio TD50/ED50” value (Mus musculus [25]) was 1.6, the ED50 (Mus musculus [19]) was 70 mg/kg and the Activity (Mus musculus [8]) was “inactive”. For the same compound, the TD50 at 0.5 h [9] was 115 mg/kg.

Reference: ChEMBL document CHEMBL1828555, “Primary amino acid derivatives: substitution of the 4'-N'-benzylamide site in (R)-N'-benzyl 2-amino-3-methylbutanamide, (R)-N'-benzyl 2-amino-3,3-dimethylbutanamide, and (R)-N'-benzyl 2-amino-3-methoxypropionamide provides potent anticonvulsants with pain-attenuating properties” (J Med Chem, 2011)
